The subject of the test is 945468-187-T-J3-PDC spheroids with HUVEC/MSC, viability. The test can be described thus: Anticancer human tumor 945468-187-T-J3-PDC patient-derived rectal carcinoma cell line growth inhibition [PI3K]. Particulars: for viability, T/C: stronger effect = lower value. An excerpt:
Combinatorial screen of targeted agents with the PI3K inhibitors inavolisib, alpelisib, duvelisib, and copanlisib in multi-cell type tumor spheroids
A high-throughput screen of multi-cell type tumor spheroids was designed to identify active combinations of targeted small molecules and PI3K pathway inhibitors. Complex spheroids include a stromal component modeled by human endothelial cells (HUVEC) and fibroblasts modeled by human mesenchymal stem cells (MSCs). The concentration ranges selected for each drug and investigational agent were based upon clinically achievable concentrations if the clinical Cmax of the agent was known.
Compounds. The drugs and investigational agents: inavolisib (NSC800729), alpelisib (NSC765974), duvelisib (NSC772469), copanlisib (NSC816437), ipatasertib (NSC767898), afuresertib (NSC778305), talazoparib (NSC767125), sapanisertib (NSC764658), selumetinib (NSC741078), tovorafenib (DAY101, NSC766906), vemurafenib (NSC761431), ravoxertinib (NSC781343), sotorasib (NSC818433), MRTX1133 (NSC 836407), abemaciclib (NSC 768073), palbociclib (NSC758247), venetoclax (NSC 766270), SY5609 (NSC837396), enzalutamide (NSC755605), and darolutamide (NSC825331), were obtained from the National Cancer Institute (NCI) Developmental Therapeutics Program Chemical Repository. The FDA-approved anticancer drug set is available from the NCI Developmental Therapeutics Program. […] The stock solutions were prepared in dimethyl sulfoxide (DMSO, Sigma-Aldrich, St. Louis, MO, cat. D2650) at 800-fold the tested concentration and stored at -70 degrees C prior to their use. All drugs and investigational agents were tested over a range starting from a high concentration at or near the clinical Cmax and decreasing in half-log increments. If the clinical Cmax for an agent had not been determined, the highest concentration tested was 10 microM.
Cell Culture. All cells were maintained in an incubator at 37 degrees C and 5% CO2 with 95% humidity. The PDC lines were cultured according to standard operating procedures established by the NCI PDMR (https://pdmr.cancer.gov/sops/default.htm). All PDCs were thawed and cultured in Matrigel-coated flasks prepared with a working solution of 1X Ham's F-12 nutrient mix, without supplementation (Invitrogen, Waltham, MA, cat. 11765054), 100 U/mL penicillin-streptomycin (Invitrogen, cat. 15140122), and 2.5% Matrigel (Corning Inc., Corning, NY, cat. 354248) for the first three passages. The 354836-022-R-J1-PDC, 475296-252-R-J1-PDC, and 997726-040-R-J2-PDC lines were cultured in 6A media, which includes advanced DMEM/F-12 (Thermo Fisher Scientific, cat. 12634028), 10 mM HEPES (Thermo Fisher Scientific, cat. 15630080), 1X GlutaMAX supplement (Thermo Fisher Scientific, cat. 35050061), 0.1 mg/mL primocin (InvivoGen, San Diego, CA, cat. ant-pm-2), 10% defined fetal bovine serum, heat inactivated (HyClone Laboratories Inc., Logan, UT, cat. SH30070.03HI), 50% L-WRN conditioned media (ATCC, cat. CRL-3276), 1.25 mM N-Acetyl-L-cysteine (Sigma-Aldrich, cat. A9165), 10 mM nicotinamide (Sigma-Aldrich, cat. N0636), 1X B-27 supplement (Thermo Fisher Scientific, cat. 17504044), 1X N-2 supplement (Thermo Fisher Scientific, cat. 17502048), and 10 microM Y-27632 dihydrochloride (Tocris Bioscience, Bristol, United Kingdom, cat. 1254). The 624824-186-R-J2-PDC line was cultured in 6C/Colon 1B media, which includes all 6A media components plus 50 ng/mL human EGF recombinant protein (Thermo Fisher Scientific, cat. PHG0311). […]

“And” between values parts separate entries of the source, which are not always exact repeats. Identical values can stand only once.

viability, T/C and IC50 data for five compounds are collected here from PubChem BioAssay AID1963968 (Molecular Pharmacology Branch, DTP, NCI, 2024).
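Note: spheroids exposed to agents for 7 days before viability read.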

Consider `C#Cc1c(F)ccc2cc(O)cc(-c3ncc4c(N5CC6CCC(C5)N6)nc(OCC56CCCN5CC(F)C6)nc4c3F)c12` (centres undefined), for which the viability, T/C (compound 0.0316 µM) was 96.4% [middle of 4 runs]; the viability, T/C (compound 0.1 µM) was 95.8% [middle of 4 runs]; the viability, T/C (compound 0.316 µM) is 98.2% [middle of 4 runs]; the viability, T/C (compound 1 µM) was 114% (2×) and 95.9% and 89.8%; the viability, T/C (compound 3.16 µM) was 125% [middle of 4 runs]; the viability, T/C (compound 10 µM) is 113% [middle of 4 runs]. Besides, the IC50 (curve of compound) is over 10000 nM.
Take `C=CC(=O)N1CCN(c2nc(=O)n(-c3c(C)ccnc3C(C)C)c3nc(-c4c(O)cccc4F)c(F)cc23)C(C)C1` (centres undefined): the viability, T/C (compound 0.0316 µM) is 99.2% and 94% and 95.5%; the viability, T/C (compound 0.1 µM) was 97.8% and 105% and 93.8%; the viability, T/C (compound 0.316 µM) was 103% and 94.5% and 98.7%; the viability, T/C (compound 1 µM) is 85.6% and 92.5% and 98.2%; the viability, T/C (compound 3.16 µM) was 88.8% and 100% and 113%; the viability, T/C (compound 10 µM) is 98.1% and 103% and 116%. Besides, for the setting “curve of compound”, the IC50 was over 10000 nM.
Turning to `CC1(C)CCC(Nc2ncc(C(F)(F)F)c(-c3c[nH]c4c(P(C)(C)=O)c(C#N)ccc34)n2)CN1` (centres undefined), the viability, T/C reads like this: (compound 0.0316 µM) 79.6% [middle of 4 runs]; (compound 10 µM) 12.7% [middle of 4 runs]. The half-inhibitory concentration (IC50) (curve of compound) was 5.16 µM [middle of 4 runs].
As to `Cn1ncc(Cl)c1-c1cc(C(=O)NC(CN)Cc2cccc(F)c2)sc1Cl` (centres undefined), the viability, T/C was 100% (2×) and 98.4% and 89.2% (compound 0.0316 µM); 98.1% [middle of 4 runs] (compound 0.1 µM); 97.4% [middle of 4 runs] (compound 0.316 µM); 59.7% [middle of 4 runs] (compound 3.16 µM); 50.4% [middle of 4 runs] (compound 10 µM).
`Cn1cnc2c(F)c(Nc3ccc(Br)cc3Cl)c(C(=O)NOCCO)cc21` + CC(Nc1ccc2c(c1)OCCn1cc(N3C(=O)OCC3C(F)F)nc1-2)C(N)=O: the IC50 was over 3000 nM (curve of first compound, second compound 0.00316 µM); over 3000 nM (curve of first compound, second compound 0.01 µM); over 3000 nM (curve of first compound, second compound 0.0316 µM); 834 nM (curve of first compound, second compound 0.1 µM); 118 nM (curve of first compound, second compound 0.316 µM); 32 nM (curve of first compound, second compound 1 µM). Besides, the viability, T/C reads like this: (second compound 0.00316 µM, first compound 0.00949 µM) 105%; (second compound 0.00316 µM, first compound 0.03 µM) 100%; (second compound 0.00316 µM, first compound 0.0949 µM) 117%; (second compound 0.00316 µM, first compound 0.3 µM) 116%; (second compound 0.00316 µM, first compound 0.949 µM) 114%; (second compound 0.00316 µM, first compound 3 µM) 95.3%. Further, the viability, T/C by setting is: (second compound 0.01 µM, first compound 0.00949 µM) 103%; (second compound 0.01 µM, first compound 0.03 µM) 105%; (second compound 0.01 µM, first compound 0.0949 µM) 114%; (second compound 0.01 µM, first compound 0.3 µM) 111%; (second compound 0.01 µM, first compound 0.949 µM) 126%; (second compound 0.01 µM, first compound 3 µM) 91.2%. The viability, T/C is, setting by setting: (second compound 0.0316 µM, first compound 0.00949 µM) 107%; (second compound 0.0316 µM, first compound 0.03 µM) 119%; (second compound 0.0316 µM, first compound 0.0949 µM) 120%; (second compound 0.0316 µM, first compound 0.3 µM) 100%; (second compound 0.0316 µM, first compound 0.949 µM) 97.1%; (second compound 0.0316 µM, first compound 3 µM) 62.7%. The viability, T/C (second compound 0.1 µM, first compound 0.00949 µM) is 114%; the viability, T/C (second compound 0.1 µM, first compound 0.03 µM) was 116%; the viability, T/C (second compound 0.1 µM, first compound 0.0949 µM) was 104%; the viability, T/C (second compound 0.1 µM, first compound 0.3 µM) is 73.3%; the viability, T/C (second compound 0.1 µM, first compound 0.949 µM) was 49.5%; the viability, T/C (second compound 0.1 µM, first compound 3 µM) was 33%. For the same compound, the viability, T/C (second compound 0.316 µM, first compound 0.00949 µM) was 85.2%; the viability, T/C (second compound 0.316 µM, first compound 0.03 µM) was 73.1%; the viability, T/C (second compound 0.316 µM, first compound 0.0949 µM) was 52.7%; the viability, T/C (second compound 0.316 µM, first compound 0.3 µM) was 35.4%; the viability, T/C (second compound 0.316 µM, first compound 0.949 µM) is 26%; the viability, T/C (second compound 0.316 µM, first compound 3 µM) is 19.2%. For the same compound, the viability, T/C was 60.4% (second compound 1 µM, first compound 0.00949 µM); 50.7% (second compound 1 µM, first compound 0.03 µM); 36.9% (second compound 1 µM, first compound 0.0949 µM); 23.3% (second compound 1 µM, first compound 0.3 µM); 15.9% (second compound 1 µM, first compound 0.949 µM); 11.7% (second compound 1 µM, first compound 3 µM).

As usually defined, the viability, T/C is the ratio of treated to control. In general, IC50 refers to the midpoint of a concentration-inhibition curve.
